As usually defined, the Kd is the concentration at which binding is half-saturated. The low end stands for higher affinity, the high end for lower affinity.

In this experiment the target is Envelope glycoprotein gp160 (Human immunodeficiency virus type 1 group M subtype B (isolate HXB2)(HIV-1), UniProt P04578). The experiment can be described thus: Binding affinity towards HIV glycoprotein gp120.

Each structure is given as a SMILES string.

`CCCCCCCCCCCCC/C=C/[C@@H](O)[C@H](CO[C@@H]1O[C@@H](CO)[C@H](O)[C@H](O)[C@@H]1O)NC(=O)OCCCCCCCCCCCCCCCCCCCCCCC` displayed an equilibrium dissociation constant (Kd) of 11.4 nM.

Values taken from ChEMBL document CHEMBL1132866, “Synthesis of glycolipid analogues that disrupt binding of HIV-1 gp120 to galactosylceramide” (Bioorg Med Chem Lett, 2000).
